Reference: patent US8461151B2, “Aryl-/heteroaryl-cyclohexenyl-tetraazabenzo[e]azulenes” (Hoffmann-La Roche Inc., priority 2010, dated 2013)

The compounds below were run against T1, human V1a receptor (Homo sapiens, UniProt P37288) (assay: human V1a receptor binding studies (3H-Vasopressin SPA, membranes of transfected HEK293 cells)). Details: 3H-Vasopressin displacement, HEK293 cell membranes, SPA beads, 1 h at room temperature, Ki by Cheng-Prussoff from IC50, read-out: pKi (hV1a) (converted).
T1 construct: expressed in transfected cells; host or cells: HEK293 cells, transiently transfected; membranes
T1 sequence (P37288 whole entry): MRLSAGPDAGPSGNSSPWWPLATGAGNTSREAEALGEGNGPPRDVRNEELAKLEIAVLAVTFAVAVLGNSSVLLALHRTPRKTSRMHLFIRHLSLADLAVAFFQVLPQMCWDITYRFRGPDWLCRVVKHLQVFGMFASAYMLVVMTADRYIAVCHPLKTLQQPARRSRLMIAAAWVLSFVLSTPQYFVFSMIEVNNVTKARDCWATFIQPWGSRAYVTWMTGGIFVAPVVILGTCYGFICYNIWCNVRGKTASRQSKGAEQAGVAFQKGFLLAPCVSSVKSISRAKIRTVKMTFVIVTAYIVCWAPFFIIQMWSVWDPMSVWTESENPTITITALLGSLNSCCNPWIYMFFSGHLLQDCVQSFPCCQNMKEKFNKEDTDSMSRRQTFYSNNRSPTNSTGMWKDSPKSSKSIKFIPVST
Experimental: The human V1a receptor was cloned by RT-PCR from total human liver RNA. The coding sequence was subcloned in an expression vector after sequencing to confirm the identity of the amplified sequence. […] Cell membranes were prepared from HEK293-cells transiently transfected with the expression vector and grown in 20 liter fermenters with the following protocol.
50 g of cells are resuspended in 30 ml freshly prepared ice cold Lysis buffer (50 mM HEPES, 1 mM EDTA, 10 mM magnesium dichloride adjusted to pH=7.4+ complete cocktail of protease inhibitor (Roche Diagnostics)). Homogenized with Polytron for 1 min and sonicated on ice for 2×2 minutes at 80% intensity (Vibracell sonicator). The preparation is centrifuged 20 min at 500 g at 4° C., the pellet is discarded and the supernatant centrifuged 1 hour at 43,000 g at 4° C. (19,000 rpm). The pellet is resuspended in 12.5 ml Lysis buffer+12.5 ml sucrose 20% and homogenized using a Polytron for 1-2 min. The protein concentration is determined by the Bradford method and aliquots are stored at −80° C. until use. For binding studies 60 mg Yttrium silicate SPA beads (Amersham®) are mixed with an aliquot of membrane in binding buffer (50 mM Tris, 120 mM sodium chloride, 5 mM potassium chloride, 2 mM calcium dichloride, 10 mM magnesium dichloride) for 15 minutes with mixing. 50 μl of bead/membrane mixture is then added to each well of a 96 well plate, followed by 50 μl of 4 nM 3H-Vasopressin (American Radiolabeled Chemicals). For total binding measurement 100 μl of binding buffer are added to the respective wells, for non-specific binding 100 μl of 8.4 mM cold vasopressin and for compound testing 100 μl of a serial dilution of each compound in 2% dimethyl sulfoxide. The plate is incubated 1 h at room temperature, centrifuged 1 min at 1000 g and counted on a Packard Top-Count. Non-specific binding counts are subtracted from each well and data is normalized to the maximum specific binding set at 100%. To calculate an IC50 the curve is fitted using a non-linear regression model (XLfit) and the Ki is calculated using the Cheng-Prussoff equation.
`CC(C)(C)OC(=O)N1Cc2cc(Cl)ccc2-n2c(nnc2C2CC=C(c3cc(F)ccn3)CC2)C1` (racemic) [Example 25, (RS)-8-Chloro-1-[4-(4-fluoro-pyridin-2-yl)-cyclohex-3-enyl]-4H,6H-2,3,5,10b-tetraaza-benzo[e]azulene-5-carboxylic acid tert-butyl ester] showed a Ki of 4.68 nM.
In the case of `Fc1ccnc(C2=CCC(c3nnc4n3-c3ccc(Cl)cc3CNC4)CC2)c1` (racemic) [Example 26, (RS)-8-Chloro-1-[4-(4-fluoro-pyridin-2-yl)-cyclohex-3-enyl]-5,6-dihydro-4H-2,3,5,10b-tetraaza-benzo[e]azulene], the Ki is reported as 110 nM.
`CN1Cc2cc(Cl)ccc2-n2c(nnc2C2CC=C(c3cc(F)ccn3)CC2)C1` (racemic) [Example 27, (RS)-8-Chloro-1-[4-(4-fluoro-pyridin-2-yl)-cyclohex-3-enyl]-5-methyl-5,6-dihydro-4H-2,3,5,10b-tetraaza-benzo[e]azulene] was tested, and the Ki was 10.5 nM.
Work on `Cc1nc(C2=CCC(c3nnc4n3-c3ccc(Cl)cc3CN(C(=O)OC(C)(C)C)C4)CC2)cs1` (racemic) [Example 34, (RS)-8-Chloro-1-[4-(2-methyl-thiazol-4-yl)-cyclohex-3-enyl]-4H,6H-2,3,5,10b-tetraaza-benzo[e]azulene-5-carboxylic acid tert-butyl ester] yielded a Ki of 3.72 nM.
Work on `Cc1nc(C2=CCC(c3nnc4n3-c3ccc(Cl)cc3CNC4)CC2)cs1` (racemic) [Example 35, (RS)-8-Chloro-1-[4-(2-methyl-thiazol-4-yl)-cyclohex-3-enyl]-5,6-dihydro-4H-2,3,5,10b-tetraaza-benzo[e]azulene] yielded a Ki of 170 nM.
`Cc1nc(C2=CCC(c3nnc4n3-c3ccc(Cl)cc3CN(C)C4)CC2)cs1` (racemic) [Example 36, (RS)-8-Chloro-5-methyl-1-[4-(2-methyl-thiazol-4-yl)-cyclohex-3-enyl]-5,6-dihydro-4H-2,3,5,10b-tetraaza-benzo[e]azulene] showed a Ki of 13.5 nM.
For `CN1Cc2cc(Cl)ccc2-n2c(nnc2C2CC=C(c3ccccn3)CC2)C1` (single isomer, unassigned; (+)) [Example 24, (+)-8-Chloro-5-methyl-1-(-4-pyridin-2-yl-cyclohex-3-enyl)-5,6-dihydro-4H-2,3,5,10b-tetraaza-benzo[e]azulene], the Ki was 2.88 nM.
With `CC(C)(C)OC(=O)N1Cc2cc(Cl)ccc2-n2c(nnc2C2CC=C(c3ncccc3F)CC2)C1` (single isomer, unassigned; (+)) [Example 29, (+)-8-Chloro-1-[-4-(3-fluoro-pyridin-2-yl)-cyclohex-3-enyl]-4H,6H-2,3,5,10b-tetraaza-benzo[e]azulene-5-carboxylic acid tert-butyl ester] the Ki was 0.794 nM.
In the case of `Fc1cccnc1C1=CCC(c2nnc3n2-c2ccc(Cl)cc2CNC3)CC1` (single isomer, unassigned; (+)) [Example 32, (+)-8-Chloro-1-[-4-(3-fluoro-pyridin-2-yl)-cyclohex-3-enyl]-5,6-dihydro-4H-2,3,5,10b-tetraaza-benzo[e]azulene], the Ki is reported as 38.9 nM.
`CN1Cc2cc(Cl)ccc2-n2c(nnc2C2CC=C(c3ncccc3F)CC2)C1` (single isomer, unassigned; (+)) [Example 33, (+)-8-Chloro-1-[-4-(3-fluoro-pyridin-2-yl)-cyclohex-3-enyl]-5-methyl-5,6-dihydro-4H-2,3,5,10b-tetraaza-benzo[e]azulene] showed a Ki of 5.13 nM.
Compound `CN1Cc2cc(Cl)ccc2-n2c(nnc2C2CC=C(c3ccccn3)CC2)C1` (single isomer, unassigned; (-)) [Example 23, (−)-8-Chloro-5-methyl-1-(-4-pyridin-2-yl-cyclohex-3-enyl)-5,6-dihydro-4H-2,3,5,10b-tetraaza-benzo[e]azulene] has a Ki of 7.59 nM.
`CC(C)(C)OC(=O)N1Cc2cc(Cl)ccc2-n2c(nnc2C2CC=C(c3ncccc3F)CC2)C1` (single isomer, unassigned; (-)) [Example 28, (−)-8-Chloro-1-[-4-(3-fluoro-pyridin-2-yl)-cyclohex-3-enyl]-4H,6H-2,3,5,10b-tetraaza-benzo[e]azulene-5-carboxylic acid tert-butyl ester] showed a Ki of 1.91 nM.
In the case of `Fc1cccnc1C1=CCC(c2nnc3n2-c2ccc(Cl)cc2CNC3)CC1` (single isomer, unassigned; (-)) [Example 30, (−)-8-Chloro-1-[-4-(3-fluoro-pyridin-2-yl)-cyclohex-3-enyl]-5,6-dihydro-4H-2,3,5,10b-tetraaza-benzo[e]azulene], the Ki is reported as 42.7 nM.
`CN1Cc2cc(Cl)ccc2-n2c(nnc2C2CC=C(c3ncccc3F)CC2)C1` (single isomer, unassigned; (-)) [Example 31, (−)-8-Chloro-1-[-4-(3-fluoro-pyridin-2-yl)-cyclohex-3-enyl]-5-methyl-5,6-dihydro-4H-2,3,5,10b-tetraaza-benzo[e]azulene] gave a Ki of 8.13 nM.
